Assay results taken from US10051861B2, “N-arylamidine-substituted trifluoroethyl sulfide derivatives as acaricides and insecticides” (BAYER CROPSCIENCE AG, priority 2011, dated 2018).
Where two headings read alike, the source gives them in different places. Marks after values point to notes of the source that are not given here.

Experiments:
[1] = logP by HPLC on reversed-phase columns (C 18), EEC Directive 79/831 Annex V.A8; format: physicochemical; details: for chromatographic logP: reversed-phase C18 HPLC column; for logP(HCOOH): pH 2.7; for logP(neutral): pH 7.8
Procedure: Calibration is carried out using unbranched alkan-2-ones (having from 3 to 16 carbon atoms) with known log P values (the log P values are determined by the retention times using linear interpolation between two successive alkanones).

[2] = tested on: cattle ticks (Boophilus microplus); experiment: Boophilus microplus injection test (BOOPMI Inj); format: in vivo; details: for pest or weed control at 0.02 mg: Rhipicephalus microplus, 168 h, read-out: efficacy (laying of fertile eggs)
Procedure: (§1) Solvent: dimethyl sulfoxide
1 μl of the active compound solution is injected into the abdomen of 5 engorged adult female cattle ticks (Boophilus microplus). The animals are transferred into dishes and kept in a climate-controlled room.
(§2) The activity is assessed after 7 days by laying of fertile eggs. Eggs whose fertility is not visible from the outside are stored in a climate-controlled cabinet until the larvae hatch after about 42 days. An efficacy of 100% means that none of the ticks has laid any fertile eggs; 0% means that all eggs are fertile.

[3] = tested on: greenhouse red spider mite (Tetranychus urticae); experiment: Tetranychus urticae spray test, OP-resistant (TETRUR), bean leaf disks; format: in vivo; details: for pest or weed control at 500 g/ha: Tetranychus urticae, foliar, 144 h, read-out: efficacy (spider mites killed)
Procedure: (§3) After 6 days, the effect in % is determined.

Boophilus microplus = Boophilus microplus test (BOOPMI injection); format: in vivo; parameters: dose or concentration left out as unconfirmed; details: after 7 days
Procedure: as §1
The solution of active compound is injected into the abdomen (Boophilus microplus), and the animals are transferred into dishes and kept in a climatized room. The activity is assessed by laying of fertile eggs.
100% means that none of the ticks has laid any fertile eggs.

[4] = tested on: larvae of the mustard beetle (Phaedon cochleariae); experiment: Phaedon cochleariae spray test (PHAECO); details: for effect (beetle larvae killed): application rate 500 g/ha, after 7 days
[5] = tested on: larvae of the mustard beetle (Phaedon cochleariae); experiment: Phaedon test (PHAECO spray treatment); details: application rate 500 g/ha, after 7 days
[6] = tested on: greenhouse red spider mite (Tetranychus urticae); experiment: Tetranychus test, OP-resistant (TETRUR spray treatment); format: in vivo; details: application rate 500 g/ha, after 6 days
Procedure: as §3

[7] = tested on: L1 larvae of the Australian sheep blowfly (Lucilia cuprina); experiment: Lucilia cuprina test (LUCICU); format: in vivo; details: application rate 100 ppm, after 2 days
Procedure: as §1
About 20 L1 larvae of the Australian sheep blowfly (Lucilia cuprina) are transferred into a test vessel containing minced horsemeat and the active compound preparation of the desired concentration.
After 2 days, the kill in % is determined.

[8] = tested on: green peach aphid (Myzus persicae); experiment: Myzus persicae spray test (MYZUPE); format: in vivo; details: after 6 days
Procedure: as §3

[9] = tested on: cattle ticks (Boophilus microplus) Parkhurst strain, SP-resistant; experiment: Boophilus microplus dip test (BOOPMI Dip); format: in vivo; details: application rate 100 ppm, after 7 days
Procedure: Test animals: cattle ticks (Boophilus microplus) Parkhurst strain, SP-resistant
as §1
10 mg of active compound are dissolved in 0.5 ml of dimethyl sulfoxide. To prepare a suitable formulation, the active compound solution is diluted with water to the concentration desired in each case.
This active compound preparation is pipetted into tubes. 8-10 adult engorged female cattle ticks (Boophilus microplus) are transferred into a further tube with holes. The tube is immersed into the active compound formulation, and all ticks are completely wetted. After the liquid has run out, the ticks are transferred on filter disks into plastic dishes and stored in a climate-controlled room.
as §2

[10] = pH 2.7, [a] LC-MS, acidic range, pH 2.7, 0.1% aqueous formic acid/acetonitrile, read-out: logP(HCOOH)
[11] = pH 7.8, [b] LC-MS, neutral range, pH 7.8, 0.001 molar aqueous ammonium bicarbonate/acetonitrile, read-out: logP(neutral)
[12] = application rate 20 μg/animal, injection, after 7 days
[13] = application rate 500 g/ha, after 6 days

| SMILES | pest or weed control at 500 g/ha [3, 13] [%] | efficacy (laying of fertile eggs) (Boophilus microplus) [%] | effect (beetle larvae killed) [4] [%] | logP(HCOOH) [1] | logP(neutral) [1] | efficacy (beetle larvae killed) [5] [%] | efficacy (spider mites killed) [3, 13] [%] | other results |
| --- | --- | --- | --- | --- | --- | --- | --- | --- |
| Cc1cc(F)c(/N=C(/N(C)C)C(F)(F)F)cc1SCC(F)(F)F [Ia-01, 2,2,2-Trifluoro-N′-{2-fluoro-4-methyl-5-[(2,2,2-trifluoroethyl)sulfanyl]phenyl}-N,N-dimethylethanimidamide] | 100 | 100 |  |  |  |  |  | chromatographic logP [1, 10]: 4.48; chromatographic logP [1, 11]: 4.5; pest or weed control at 0.02 mg [2, 12]: 100% |
| CCCNC(=Nc1cc(SCC(F)(F)F)c(C)cc1F)C(F)(F)F [Ia-02] |  |  | 100 | 4.45 | 4.43 | 100 | 100 | efficacy (spider mites killed) [6]: 100% |
| Cc1cc(F)c(N=C(NCc2ccccn2)C(F)(F)F)cc1SCC(F)(F)F [Ia-04] |  | 80 | 100 | 3.68^[a] |  | 100 | 100 | efficacy (laying of fertile eggs) [2, 12]: 80% |
| Cc1cc(F)c(N=C(NC(C)C)C(F)(F)F)cc1SCC(F)(F)F [Ia-05] |  |  | 100 | 4.51 | 4.52 | 100 | 100 | efficacy (spider mites killed) [6]: 100% |
| CNC(=Nc1cc(SCC(F)(F)F)c(C)cc1F)C(F)(F)F [Ia-13] |  |  | 100 | 3.7 | 3.71 | 100 | 100 | efficacy (kill of larvae) [7]: 90%; efficacy (laying of fertile eggs) [2, 12]: 100%; efficacy (spider mites killed) [6]: 100% |
| CNC(=Nc1cc(SCC(F)(F)F)c(Cl)cc1Cl)C(F)(F)F [Ia-15] |  |  | 100 | 4.2^[a]; 4.2^[b] | 4.2^[a]; 4.2^[b] | 100 | 100 | efficacy (spider mites killed) [6]: 100% |
| CCNC(=Nc1cc(SCC(F)(F)F)c(C)cc1F)C(F)(F)F [Ia-18] |  |  | 100 | 4.12^[a]; 4.12^[b] | 4.12^[a]; 4.12^[b] | 100 | 100 | efficacy (spider mites killed) [6]: 100% |
| Cc1cc(F)c(N=C(N)C(F)(F)C(F)(F)C(F)(F)C(F)(F)C(F)(F)C(F)F)cc1SCC(F)(F)F [Ia-22] |  | 100 |  |  |  |  | 100 | efficacy (laying of fertile eggs) [2, 12]: 100% |
| Cc1cc(C)c(SCC(F)(F)F)cc1/N=C(\N)C1(Cl)CC1 [Ia-34] | 100 |  |  |  |  |  |  | pest or weed control at 0.02 mg [2, 12]: 100%; effect (aphids killed) ([8]; application rate 500 g/ha): 90% |
| Cc1cc(F)c(/N=C(/N)c2ccc(F)cc2)cc1SCC(F)(F)F [Ia-116] | 100 |  |  |  |  |  |  | pest or weed control at 0.02 mg [2, 12]: 100%; effect (aphids killed) ([8]; application rate 500 g/ha): 90% |
| Cc1cc(F)c(/N=C2\CCCN2CC(F)(F)F)cc1SCC(F)(F)F [Ia-189, 2-fluoro-4-methyl-N-[1-(2,2,2-trifluoroethyl)pyrrolidin-2-ylidene]-5-[(2,2,2-trifluoroethyl)sulfanyl]aniline] |  |  |  |  |  |  |  | chromatographic logP [1, 10]: 2.32; chromatographic logP [1, 11]: 4.37; pest or weed control at 0.02 mg [2]: 100%; pest or weed control at 500 g/ha [3]: 100%; efficacy (laying of fertile eggs) [9]: 100% |
| Cc1cc(F)c(/N=C(\NC(C)C(F)(F)F)C2CC2)cc1SCC(F)(F)F (centres unmarked) [Ia-206] | 100 |  |  |  |  |  |  | pest or weed control at 0.02 mg [2, 12]: 100%; effect (aphids killed) ([8]; application rate 500 g/ha): 100% |
| Cc1cc(F)c(/N=C(\NCC2CCCC(C(F)(F)F)C2)C2CC2)cc1SCC(F)(F)F (centres unmarked) [Ia-228] | 90 |  |  |  |  |  |  | effect (aphids killed) ([8]; application rate 500 g/ha): 100% |
| Cc1cc(F)c(/N=C(/N(C)C)C(F)(F)F)cc1[S+]([O-])CC(F)(F)F (centres unmarked) [Ib-01, 2,2,2-Trifluoro-N′-{2-fluoro-4-methyl-5-[(2,2,2-trifluoroethyl)sulfinyl]phenyl}-N,N-dimethylethanimidamide] | 90 | 100 |  |  |  |  |  | chromatographic logP [1, 10]: 3.15; pest or weed control at 0.02 mg [2, 12]: 100% |
| CN/C(=N/c1ccc(C(F)(F)F)c([S+]([O-])CC(F)(F)F)c1)C(F)(F)F (centres unmarked) [Ib-10] |  | 100 | 100 | 2.52 | 2.49 | 100 | 100 | efficacy (laying of fertile eggs) [2, 12]: 100% |
| N/C(=N/c1cc([S+]([O-])CC(F)(F)F)c(Cl)cc1Cl)C(F)(F)F (centres unmarked) [Ib-14] |  | 100 | 100 | 2.05 | 2.02 | 100 | 100 | efficacy (laying of fertile eggs) [2, 12]: 100% |
| N/C(=N/c1ccc(C(F)(F)F)c([S+]([O-])CC(F)(F)F)c1)C(F)(F)F (centres unmarked) [Ib-16] |  | 100 | 100 | 2.2 | 2.19 | 100 | 100 | efficacy (laying of fertile eggs) [2, 12]: 100% |
| Cc1cc(F)c(/N=C2\CCCN2CC(F)F)cc1[S+]([O-])CC(F)(F)F (centres unmarked) [Ib-33] | 100 |  |  |  |  |  |  | pest or weed control at 0.02 mg [2, 12]: 100%; efficacy (laying of fertile eggs) [9]: 100% |
| Cc1cc(F)c(/N=C(\N)C(F)(F)C(F)(F)F)cc1[S+]([O-])CC(F)(F)F (centres unmarked) [Ib-42] | 100 |  |  |  |  |  |  | effect (aphids killed) ([8]; application rate 100 g/ha): 80% |
| Cc1cc(F)c(/N=C2\CCCN2CC(F)(F)F)cc1[S+]([O-])CC(F)(F)F (centres unmarked) [Ib-115, 2-Fluoro-4-methyl-N-[1-(2,2,2-trifluoroethyl)pyrrolidin-2-ylidene]-5-[(2,2,2-trifluoroethyl)sulfinyl]aniline] |  |  |  |  |  |  |  | pest or weed control at 500 g/ha ([4]; Phaedon cochleariae, 168 h, read-out: effect (beetle larvae killed)): 100%; pest or weed control at 0.02 mg [2]: 100%; pest or weed control at 500 g/ha [3]: 100%; efficacy (laying of fertile eggs) [9]: 100% |
| CN(C)/C(=N\c1cc([S+]([O-])CC(F)(F)F)c(Cl)cc1Cl)c1cccnc1 (centres unmarked) [Ib-123] | 100 |  |  |  |  |  |  | effect (aphids killed) ([8]; application rate 500 g/ha): 90% |
